Counter-ions that a name gives are not always drawn.
Assays:
[1] = biological target: PARP-1 enzyme (Homo sapiens (Human), UniProt P09874); assay: Poly(ADP-ribose)polymerase [PARP-1] enzyme inhibitory activity (Trevigen PARP Assay kit); type: biochemical; settings: read-out: PARP-1 Inhibitory activity IC50
In short: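 On histone-coated plates, PARP-1 (0.12 unit/well) reacted with compound for 30 min at 25 °C in a 2× cocktail of 1.95 mM NAD+, 50 μM biotinylated NAD+ and activated DNA (Tris pH 8.0, 25 mM MgCl2). Biotin-ribosylated histone was detected with streptavidin-HRP and TACS-Sapphire substrate, stopped with HCl and read at 450 nm.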

[2] = biological target: PARP-1 enzyme (Cricetulus griseus (Chinese hamster) (Cricetulus barabensis griseus), UniProt Q9R152); assay: Intracellular PARP inhibitory activity (NAD(P)H released by MMS-treated CHO-K1 cells); type: cell-based
PARP-1 enzyme (Cricetulus griseus (Chinese hamster) (Cricetulus barabensis griseus), UniProt Q9R152), sequence (Q9R152 whole entry): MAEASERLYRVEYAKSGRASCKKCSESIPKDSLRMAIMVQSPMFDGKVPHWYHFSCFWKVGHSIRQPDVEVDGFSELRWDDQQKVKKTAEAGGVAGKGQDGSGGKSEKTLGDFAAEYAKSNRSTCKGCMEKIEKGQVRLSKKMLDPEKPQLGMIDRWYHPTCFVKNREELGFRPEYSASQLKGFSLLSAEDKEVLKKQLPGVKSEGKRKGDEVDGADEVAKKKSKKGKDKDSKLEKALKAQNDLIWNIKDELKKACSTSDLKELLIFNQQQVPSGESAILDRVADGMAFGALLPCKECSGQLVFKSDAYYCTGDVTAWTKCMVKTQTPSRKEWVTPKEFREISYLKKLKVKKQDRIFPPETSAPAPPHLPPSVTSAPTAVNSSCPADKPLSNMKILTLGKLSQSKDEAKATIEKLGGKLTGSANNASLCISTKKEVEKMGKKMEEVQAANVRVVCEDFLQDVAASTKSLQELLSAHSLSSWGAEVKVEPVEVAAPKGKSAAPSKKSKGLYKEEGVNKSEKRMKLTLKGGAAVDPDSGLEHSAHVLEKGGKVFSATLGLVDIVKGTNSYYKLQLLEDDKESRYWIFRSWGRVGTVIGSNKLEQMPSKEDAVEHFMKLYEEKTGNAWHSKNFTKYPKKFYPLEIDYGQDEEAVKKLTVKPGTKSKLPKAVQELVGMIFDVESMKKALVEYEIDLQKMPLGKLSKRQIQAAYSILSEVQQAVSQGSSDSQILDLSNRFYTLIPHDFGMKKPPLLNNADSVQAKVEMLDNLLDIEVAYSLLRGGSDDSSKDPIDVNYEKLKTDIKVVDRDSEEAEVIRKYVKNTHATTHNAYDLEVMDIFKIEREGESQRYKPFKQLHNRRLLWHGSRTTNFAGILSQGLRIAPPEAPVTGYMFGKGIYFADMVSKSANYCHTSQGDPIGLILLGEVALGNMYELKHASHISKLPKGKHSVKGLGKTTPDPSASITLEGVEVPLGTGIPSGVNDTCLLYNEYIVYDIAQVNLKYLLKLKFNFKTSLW

[3] = tested on: A549 cell line; assay: Cell growth inhibition of cancer cell lines (SRB assay), A549; type: cell-based
Protocol: (§1) The tests on cell growth inhibitory activity were performed with respect to A549 (US, ATCC), SK-OV-3 (Korea Research Institute of Chemical Technology; KRICT), HT-29 (US, ATCC), MCF-7 cell (US, ATCC), using Sulforhodamin-B <SRB> Assay (1989, US National Cancer Institute (NCI)) which was developed to measure the in vitro anti-cancer activity of the drug. […] The samples of the compounds of the Examples according to the present invention were used for the tests, and before the tests, the samples were dissolved in dimethylsulfoxide and diluted with the culture medium (RPMI 1640) to be used. The final concentration of the sample was varied in the range of 0.3˜100 μM. After the culture medium was removed from the 96 well plates, the diluted sample solution was added by 100 μl, and cultured in 37° C., 5% CO2 culture medium for 72 hours. The time zero (Tz) plates were collected at the time point of adding the sample. Upon completing the culture, the medium was removed from each well along with Tz plate, then cold 10% trichloroacetic acid (TCA) was added by 100 μl per well. The wells were left at 4° C. for 1 hour, so that the cells were fixed into the bottom of the plates. After the cells were fixed, the plates were rinsed with water five to six times to remove the remaining trichloroacetic acid solution, and moisture was completely dried at room temperature. The cells were dyed for 30 minutes by adding the dye solution in which 0.4% sulforhodamine-B was dissolved in 1% acetic acid solution, by 100 μl per dried wells. The above was rinsed again with 1% acetic acid solution five to six times to ensure that sulforhodamine-B which had not attached to the cells was removed. The plates were again dried at room temperature. 100 μl of 10 mM tris-buffer was then added to dissolve the dye, and the optical density (OD) at 520 nm was measured with the microplate reader. GI50 of the sample regarding cancer cell was calculated as explained below. Time zero (Tz), control value (C) and test value (T) were obtained, in which Tz corresponds to OD value of time at which the sample is applied and culture is started, C corresponds to OD value of the well which is cultured without treatment with the sample, and T corresponds to OD value of the well which is treated with the sample and then cultured. The degree of cell growth inhibition of the sample was measured using: If […] [Mathematical Formula 1]
(§2) Further, the ability of Examples 2, 42, 49, 52, 72, 74, 101 to increase growth inhibition effect of temozolomide and SN-38 at 2 μM was determined.

[4] = tested on: SK-OV-3 Cell line; assay: Cell growth inhibition of cancer cell lines (SRB assay), SK-OV-3; type: cell-based
Protocol: as §1, §2

[5] = tested on: MCF-7 Cell line; assay: Cell growth inhibition of cancer cell lines (SRB assay), MCF-7; type: cell-based
Protocol: as §1, §2

PARP-1 enzyme (Homo sapiens (Human), UniProt P09874), sequence (P09874 whole entry): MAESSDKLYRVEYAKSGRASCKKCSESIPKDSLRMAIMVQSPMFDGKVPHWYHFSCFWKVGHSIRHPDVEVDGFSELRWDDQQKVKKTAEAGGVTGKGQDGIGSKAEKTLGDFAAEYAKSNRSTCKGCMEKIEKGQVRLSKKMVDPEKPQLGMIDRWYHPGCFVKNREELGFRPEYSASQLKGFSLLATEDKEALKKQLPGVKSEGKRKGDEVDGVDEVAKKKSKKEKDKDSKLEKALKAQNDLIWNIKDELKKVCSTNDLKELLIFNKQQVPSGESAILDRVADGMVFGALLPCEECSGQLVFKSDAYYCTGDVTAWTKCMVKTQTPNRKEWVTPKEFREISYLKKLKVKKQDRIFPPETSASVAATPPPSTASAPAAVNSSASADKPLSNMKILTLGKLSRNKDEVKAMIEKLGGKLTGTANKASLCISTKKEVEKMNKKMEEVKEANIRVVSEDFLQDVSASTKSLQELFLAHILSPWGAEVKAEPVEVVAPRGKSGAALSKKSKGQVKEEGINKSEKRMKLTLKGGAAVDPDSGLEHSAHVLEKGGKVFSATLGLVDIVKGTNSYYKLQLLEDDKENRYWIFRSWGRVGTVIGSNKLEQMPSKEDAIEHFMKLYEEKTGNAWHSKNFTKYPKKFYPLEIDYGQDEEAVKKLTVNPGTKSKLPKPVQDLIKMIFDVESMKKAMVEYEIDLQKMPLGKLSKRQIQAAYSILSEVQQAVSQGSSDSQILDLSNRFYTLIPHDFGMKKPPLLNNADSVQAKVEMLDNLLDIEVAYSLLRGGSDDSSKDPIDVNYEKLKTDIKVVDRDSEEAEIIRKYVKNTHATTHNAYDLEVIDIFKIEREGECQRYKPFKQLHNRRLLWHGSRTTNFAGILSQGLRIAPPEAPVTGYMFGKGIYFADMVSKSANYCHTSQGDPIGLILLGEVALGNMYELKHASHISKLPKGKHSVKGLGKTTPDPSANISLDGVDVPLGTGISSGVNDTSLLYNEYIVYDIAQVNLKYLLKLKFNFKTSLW

## COc1cc(CN2CCOCC2)cc2[nH]c(=O)c3c(c12)NCCC3 [Example 74, 10-Methoxy-8-(morpholinomethyl)-1,2,3,4-tetrahydrobenzo[h][1,6]naphthyridine-5(6H)-one dihydrochloride]
[1]
  IC50: 0.23 µM
[2]
  IC50: 1.48 µM
[3]; 2 μM compound, GI50 SN-38 alone / GI50 with compound
  SN-38 PF50: 2.2
[3]; 2 μM compound, GI50 temozolomide alone / GI50 with compound
  Temozolomide PF50: 3.2
[3]; Homo sapiens, 72 hours
  GI50: 75 µM
[4]; 2 μM compound
  SN-38 PF50: 2.2
  Temozolomide PF50: >5.0
[4]; Homo sapiens, 72 hours
  GI50: 52 µM
[5]; 2 μM compound
  SN-38 PF50: 3.0
  Temozolomide PF50: 6.3
[5]; Homo sapiens, MCF7, 72 hours
  GI50: 45 µM
